Patent US9657057B2, “Dipeptide and tripeptide epoxy ketone protease inhibitors” (Onyx Therapeutics, Inc., priority 2013, dated 2017)
Converted amounts (≈) assume the structure as drawn. “And” between values parts separate entries of the source, which are not always exact repeats. Equal entries are not always repeated.

What was measured:
[1] = target: i20S (20S immunoproteasome) (Homo sapiens, UniProt P20618+P28062); test: 20S proteasome assay, chymotrypsin-like activity (LLVY), i20S; assay type: biochemical; details: LLVY i20S Hu 1 h CONT: IC50 (nM), succinyl-Leu-Leu-Val-Tyr-AMC
Description: (§1) Assay buffer consisted of TE buffer [20 mmol/L Tris (pH 8.0), 0.5 mmol/L EDTA] with (20S) or without (cell lysate) 0.03% SDS. Reactions were initiated by enzyme or lysate addition and monitored for AMC product formation at 27jC with a plate-based spectofluorometer (Tecan).

β5 = target: T1, β5 (Homo sapiens, UniProt P20618+P28074); test: ProCISE proteasome subunit assay, β5; assay type: biochemical; details: MOLT4 lysate Hu 1 h
T1 construct: endogenous in cells; host or cells: MOLT-4
In short: (§2)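 MOLT-4 cell lysate was incubated with compound for 1 h at 25° C, then a subunit-binding probe was applied; probe-bound subunits were pulled down on streptavidin beads after guanidine denaturation and detected with subunit-specific antibodies by HRP chemiluminescence. Signal was normalized to protein and expressed as percent of DMSO control to fit IC50.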

Solubility pH 7 = assay type: physicochemical; details: pH 7, aqueous buffer
LMP7 = target: T2, LMP7 (Homo sapiens, UniProt P20618+P28062); test: ProCISE proteasome subunit assay, LMP7; assay type: biochemical; details: MOLT4 lysate Hu 1 h
T2 construct: endogenous in cells; host or cells: MOLT-4
In short: as §2

[2] = target: c20S (constitutive 20S proteasome) (Homo sapiens, UniProt P20618+P28074); test: 20S proteasome assay, chymotrypsin-like activity (LLVY), c20S; assay type: biochemical; details: LLVY c20S Hu 1 h CONT: IC50 (nM), succinyl-Leu-Leu-Val-Tyr-AMC
Description: as §1

C[C@@H](NC(=O)CC(C)(C)O)C(=O)N[C@@H](Cc1ccc(S(C)(=O)=O)cc1)C(=O)N[C@@H](CC1CCCC1)C(=O)[C@@]1(C)CO1 [Compound C-2050, N—((R)-1-(((S)-1-(((S)-3-cyclopentyl-1-((R)-2-methyloxiran-2-yl)-1-oxopropan-2-yl)amino)-3-(4-(methylsulfonyl)phenyl)-1-oxopropan-2-yl)amino)-1-oxopropan-2-yl)-3-hydroxy-3-methylbutanamide]
IC50 [1]: 49.2 nM
IC50 (β5): 595 nM
solubility (Solubility pH 7): 6160 µg/mL (≈ 10400 µM)
IC50 (LMP7): 67.1 nM
IC50 [2]: 521 nM

COc1ccc(C[C@H](NC(=O)[C@H](C)NC(=O)CC(C)(C)O)C(=O)N[C@@H](CC2CCCC2)C(=O)[C@@]2(C)CO2)cc1 [Compound C-2027, N—((S)-1-(((S)-1-(((S)-3-cyclopentyl-1-((R)-2-methyloxiran-2-yl)-1-oxopropan-2-yl)amino)-3-(4-methoxyphenyl)-1-oxopropan-2-yl)amino)-1-oxopropan-2-yl)-3-hydroxy-3-methylbutanamide]
IC50 [1]: 470 nM
IC50 (β5): 3600 nM
solubility (Solubility pH 7): 753 µg/mL (≈ 1380 µM)
IC50 (LMP7): 618 nM
IC50 [2]: 2130 nM

COc1ccc(C[C@H](NC(=O)[C@@H](C)NC(=O)c2cnc(C)s2)C(=O)N[C@@H](CC2CCCC2)C(=O)[C@@]2(C)CO2)cc1 [Compound C-2026, N—((R)-1-(((S)-1-(((S)-3-cyclopentyl-1-((R)-2-methyloxiran-2-yl)-1-oxopropan-2-yl)amino)-3-(4-methoxyphenyl)-1-oxopropan-2-yl)amino)-1-oxopropan-2-yl)-2-methylthiazole-5-carboxamide]
IC50 [1]: 64.6 nM
IC50 (β5): 3450 nM
solubility (Solubility pH 7): 126 µg/mL (≈ 221 µM)
IC50 (LMP7): 170 nM
IC50 [2]: 1360 nM

COc1ccc(C[C@H](NC(=O)[C@@H](C)NC(=O)c2ccccn2)C(=O)N[C@@H](CC2CCCC2)C(=O)[C@@]2(C)CO2)cc1 [Compound C-2031, N—((R)-1-(((S)-1-(((S)-3-cyclopentyl-1-((R)-2-methyloxiran-2-yl)-1-oxopropan-2-yl)amino)-3-(4-methoxyphenyl)-1-oxopropan-2-yl)amino)-1-oxopropan-2-yl)picolinamide]
IC50 [1]: 763 nM
IC50 (β5): 26700 nM
solubility (Solubility pH 7): 41.7 µg/mL (≈ 75.7 µM)
IC50 (LMP7): 1450 nM
IC50 [2]: 18300 nM

COc1ccc(C[C@H](NC(=O)[C@@H](C)NC(=O)C2=CCCC2)C(=O)N[C@@H](CC2CCCC2)C(=O)[C@@]2(C)CO2)cc1 [Compound C-2037, N—((R)-1-(((S)-1-(((S)-3-cyclopentyl-1-((R)-2-methyloxiran-2-yl)-1-oxopropan-2-yl)amino)-3-(4-methoxyphenyl)-1-oxopropan-2-yl)amino)-1-oxopropan-2-yl)cyclopent-1-enecarboxamide]
IC50 [1]: 891 nM
IC50 (β5): 9630 nM
solubility (Solubility pH 7): 3.6 µg/mL (≈ 6.67 µM)
IC50 (LMP7): 466 nM
IC50 [2]: 6080 nM

COc1ccc(C[C@H](NC(=O)[C@@H](C)NC(=O)CC(C)(C)O)C(=O)N[C@@H](CC2=CCCC2)C(=O)[C@@]2(C)CO2)cc1O [Compound C-2060, N—((R)-1-(((S)-1-(((S)-3-(cyclopent-1-en-1-yl)-1-((R)-2-methyloxiran-2-yl)-1-oxopropan-2-yl)amino)-3-(3-hydroxy-4-methoxyphenyl)-1-oxopropan-2-yl)amino)-1-oxopropan-2-yl)-3-hydroxy-3-methylbutanamide]
IC50 [1]: 17.3 nM
IC50 (β5): 368 nM
solubility (Solubility pH 7): 3010 µg/mL (≈ 5390 µM)
IC50 (LMP7): 60.4 nM
IC50 [2]: 201 nM

COc1ccc(C[C@H](NC(=O)[C@@H](C)NC(=O)c2ccncc2)C(=O)N[C@@H](CC2CCCC2)C(=O)[C@@]2(C)CO2)cc1 [Compound C-2033, N—((R)-1-(((S)-1-(((S)-3-cyclopentyl-1-((R)-2-methyloxiran-2-yl)-1-oxopropan-2-yl)amino)-3-(4-methoxyphenyl)-1-oxopropan-2-yl)amino)-1-oxopropan-2-yl)isonicotinamide]
IC50 [1]: 1450 nM
IC50 (β5): > 250000 nM
solubility (Solubility pH 7): 165 µg/mL (≈ 299 µM)
IC50 (LMP7): 46700 nM
IC50 [2]: 10100 nM

COc1ccc(C[C@H](NC(=O)[C@@H](C)NC(=O)CC(C)(O)C(F)(F)F)C(=O)N[C@@H](CC2CCCC2)C(=O)[C@@]2(C)CO2)cc1 (stereo partly drawn) [Compound C-2054, N—((R)-1-(((S)-1-(((S)-3-cyclopentyl-1-((R)-2-methyloxiran-2-yl)-1-oxopropan-2-yl)amino)-3-(4-methoxyphenyl)-1-oxopropan-2-yl)amino)-1-oxopropan-2-yl)-4,4,4-trifluoro-3-hydroxy-3-methylbutanamide]
IC50 [1]: 55 nM
IC50 (β5): 670 nM
solubility (Solubility pH 7): 122 µg/mL (≈ 204 µM)
IC50 (LMP7): 75 nM
IC50 [2]: 723 nM

COc1ccc(C[C@H](NC(=O)[C@@H](C)NC(=O)c2nc3ccccc3n2C)C(=O)N[C@@H](CC2CCCC2)C(=O)[C@@]2(C)CO2)cc1 [Compound C-2038, N—((R)-1-(((S)-1-(((S)-3-cyclopentyl-1-((R)-2-methyloxiran-2-yl)-1-oxopropan-2-yl)amino)-3-(4-methoxyphenyl)-1-oxopropan-2-yl)amino)-1-oxopropan-2-yl)-1-methyl-1H-benzo[d]imidazole-2-carboxamide]
IC50 [1]: 722 nM and 649 nM
IC50 (β5): 2700 nM
solubility (Solubility pH 7): 1.8 µg/mL (≈ 2.98 µM)
IC50 (LMP7): 286 nM
IC50 [2]: 3550 nM and 7630 nM

COc1ccc(C[C@H](NC(=O)[C@@H](C)NC(=O)CC(C)(C)O)C(=O)N[C@@H](CC2CCCC2)C(=O)[C@@]2(C)CO2)cc1O [Compound C-2059, N—((R)-1-(((S)-1-(((S)-3-cyclopentyl-1-((R)-2-methyloxiran-2-yl)-1-oxopropan-2-yl)amino)-3-(3-hydroxy-4-methoxyphenyl)-1-oxopropan-2-yl)amino)-1-oxopropan-2-yl)-3-hydroxy-3-methylbutanamide]
IC50 [1]: 15.9 nM
IC50 (β5): 534 nM
solubility (Solubility pH 7): 2450 µg/mL (≈ 4360 µM)
IC50 (LMP7): 71 nM
IC50 [2]: 246 nM

COc1ccc(C[C@H](NC(=O)[C@H](C)NC(=O)c2cc(C)no2)C(=O)N[C@@H](CC2CCCC2)C(=O)[C@@]2(C)CO2)cc1 [Compound C-2022, N—((S)-1-(((S)-1-(((S)-3-cyclopentyl-1-((R)-2-methyloxiran-2-yl)-1-oxopropan-2-yl)amino)-3-(4-methoxyphenyl)-1-oxopropan-2-yl)amino)-1-oxopropan-2-yl)-3-methylisoxazole-5-carboxamide]
IC50 [1]: 23.5 nM
IC50 (β5): 429 nM
solubility (Solubility pH 7): 84.7 µg/mL (≈ 153 µM)
IC50 (LMP7): 195 nM
IC50 [2]: 65.3 nM

COc1ccc(C[C@H](NC(=O)[C@@H](NC(=O)OCc2ccccc2)C2COC2)C(=O)N[C@@H](Cc2ccccc2)C(=O)[C@@]2(C)CO2)cc1 [Compound C-2035, benzyl ((S)-2-(((S)-3-(4-methoxyphenyl)-1-(((S)-1-((R)-2-methyloxiran-2-yl)-1-oxo-3-phenylpropan-2-yl)amino)-1-oxopropan-2-yl)amino)-1-(oxetan-3-yl)-2-oxoethyl)carbamate]
IC50 [1]: 4.6 nM
IC50 (β5): 21.1 nM
solubility (Solubility pH 7): 3.1 µg/mL (≈ 4.92 µM)
IC50 (LMP7): 13.2 nM
IC50 [2]: 15.3 nM

COc1ccc(C[C@H](NC(=O)[C@@H]2CCC(=O)N2)C(=O)N[C@@H](Cc2ccccc2)C(=O)[C@@]2(C)CO2)cc1 [Compound C-3013, (S)—N—((S)-3-(4-methoxyphenyl)-1-(((S)-1-((R)-2-methyloxiran-2-yl)-1-oxo-3-phenylpropan-2-yl)amino)-1-oxopropan-2-yl)-5-oxopyrrolidine-2-carboxamide]
IC50 [1]: 4050 nM
IC50 (β5): 14200 nM
solubility (Solubility pH 7): 1910 µg/mL (≈ 3870 µM)
IC50 (LMP7): 3480 nM
IC50 [2]: 15900 nM
